Assay results taken from PubChem BioAssay (NCI).
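A five-concentration, 48-hour dose response in 96-well plates underlies each endpoint, interpolated linearly between surrounding concentrations. GI50 is the concentration that inhibits growth by half. At the TGI there is no net growth.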

How the values were obtained:
Assay in all cases: NCI tumour cell line growth inhibition, 48 h
[1] = test system: 786-0 renal
[2] = test system: IGROV1 ovarian
[3] = test system: OVCAR-5 ovarian
[4] = test system: DU-145 prostate
[5] = test system: OVCAR-8 ovarian
[6] = test system: SR leukemia
[7] = test system: CCRF-CEM leukemia
[8] = test system: SF-539 CNS
[9] = test system: LOX IMVI melanoma
[10] = test system: PC-3 prostate

| SMILES | GI50 [1] [µM] | TGI [1] [µM] | GI50 [2] [µM] | TGI [2] [µM] | GI50 [3] [µM] | TGI [3] [µM] | GI50 [4] [µM] | TGI [4] [µM] | GI50 [5] [µM] | TGI [5] [µM] | GI50 [6] [µM] | TGI [6] [µM] | GI50 [7] [µM] | TGI [7] [µM] | GI50 [8] [µM] | TGI [8] [µM] | GI50 [9] [µM] | TGI [9] [µM] | GI50 [10] [µM] | TGI [10] [µM] |
| --- | --- | --- | --- | --- | --- | --- | --- | --- | --- | --- | --- | --- | --- | --- | --- | --- | --- | --- | --- | --- |
| Cn1cc(C2=C(c3cn(C)c4ccc(N)cc34)C(=O)NC2=O)c2ccccc21 | 19.7 | > 25 | 23.8 | > 25 | > 25 | > 25 | 12.3 | > 25 | 17 | > 25 | 2.05 | > 25 | 6.95 | > 25 | 6.14 | 24.4 | 12.2 | > 25 | 9 | > 25 |
| N/C(=N\OC(=O)c1ccccc1)C(C(=O)NOC(=O)c1ccccc1)C1CCCCC1 (stereo not given) | 13.9 | 26.9 | 1.66 | 3.92 | 14.6 | 28.2 | 2.76 | 10.3 | 3.38 | 14.8 | 1.99 | 4.99 | 2.71 | 9.79 | 7.22 | 20.1 | 0.343 | 1.38 | 6.33 | 20.5 |
| CCN(c1ccc(CO)c(Cl)c1)C(C)c1ccc(F)cc1 (stereo not given) | 16.4 | 30.4 | 0.891 | 4 | 2.97 | 11.9 | 16.9 | 31.2 | 14.1 | 30.2 | 19.8 | 43.1 | 18 | 41.2 | 16.5 | 30.8 | 17.1 | 32.9 | 13.1 | 26.7 |
| COc1cc(-c2oc3ccccc3c(=O)c2O)cc(OC)c1OC |  | 41.6 |  | > 100 |  | > 100 |  | > 100 |  | > 100 |  | > 24.8 |  | > 30.5 |  | > 100 |  | > 100 |  | > 100 |
| O=C(O)c1cc[c]([Hg][S]c2ncnc3nc[nH]c23)cc1 | 5.83 | 21.9 | 9.25 | 23.8 | 14.1 | 29 | 7.47 | 25.1 | 4.44 | 25.3 | 1.32 | 7.16 | 4.55 | 21.8 | 7.39 | 25.6 | 0.684 | 17.1 | 8.37 | 23.5 |
| COc1ccc(-c2cc(-c3ccc(Cl)cc3)c(C#N)c(=O)n2CCCCC(=O)Nc2ccccc2N)cc1 | 7.46 | > 100 | 4.9 | > 100 | 10.8 | > 100 | 16.3 | > 100 | 4.7 | > 100 | 1.09 | > 100 | 4.87 | > 100 | 19.4 | > 100 | 1.16 | 2.92 | 6.18 | 95.9 |
| COc1ccc(C2SC(N)=Nc3c2c(C)nn3C(=O)c2ccc(Cl)cc2)cc1OC (stereo not given) |  | > 10 |  | > 10 |  | > 10 |  | > 10 |  | > 10 |  | > 10 |  | > 10 |  | > 10 |  | > 10 |  | > 10 |
| CNC(=O)Nc1ccc(-c2nc(N3CCOCC3)nc3c2cnn3C2CCOCC2)cc1 | 0.295 | 2.86 | 0.0794 | 0.493 | 0.194 | 1.36 | 0.288 | > 100 | 0.247 | 6.47 | 0.239 | > 19.8 | 0.276 | > 100 | 0.205 | 1.36 | 0.161 | > 100 | 0.0809 | 7.49 |
| Cc1ccc(C(=O)/C(=C/c2ccc([N+](=O)[O-])cc2)S(=O)Cc2ccccc2)cc1 (stereo not given) | 1.44 | 2.81 | 1.42 | 3.29 | 1.69 | 3.61 | 1.34 | 2.69 | 1.36 | 3.23 | 0.539 | 5.21 | 0.396 | > 100 | 1.69 | 3.1 | 0.417 | 1.67 | 1.35 | 2.95 |
